The record followed here is ChEMBL document CHEMBL1129026, “Rapid microscale synthesis, a new method for lead optimization using robotics and solution phase chemistry: application to the synthesis and optimization of corticotropin-releasing factor1 receptor antagonists” (J Med Chem, 1996).

The term Ki denotes the dissociation constant of the complex between target and ligand, obtained from inhibition or displacement.

Some results are limits rather than exact numbers.

The target of the assay is T1, Corticotropin-releasing factor receptor 1 (Homo sapiens, UniProt P34998).
T1 sequence (P34998 whole entry): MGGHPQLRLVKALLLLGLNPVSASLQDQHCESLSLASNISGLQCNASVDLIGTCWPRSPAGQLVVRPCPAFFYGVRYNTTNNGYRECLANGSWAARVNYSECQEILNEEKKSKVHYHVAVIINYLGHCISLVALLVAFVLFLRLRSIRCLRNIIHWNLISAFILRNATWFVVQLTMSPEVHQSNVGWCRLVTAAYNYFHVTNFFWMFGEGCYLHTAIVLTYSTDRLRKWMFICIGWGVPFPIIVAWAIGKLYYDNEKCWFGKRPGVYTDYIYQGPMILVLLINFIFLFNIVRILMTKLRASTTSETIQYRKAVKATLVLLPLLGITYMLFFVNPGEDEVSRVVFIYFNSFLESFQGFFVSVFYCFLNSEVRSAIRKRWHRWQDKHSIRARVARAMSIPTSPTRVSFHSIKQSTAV
As to the kind of experiment: Inhibition of [125I]CRF binding to human corticotropin releasing factor receptor 1.

In turn, `CCN(Cc1ccccc1)c1nc(C)nc(Nc2c(C)cccc2C)n1` registered an inhibition constant (Ki) greater than 10 µM.

The molecule `CCc1cccc(CC)c1Nc1nc(C)nc(N(CC)Cc2ccccc2)n1` came in with a Ki of 1.7 µM.

`CCCN(CCC)c1nc(C)nc(Nc2c(C)cc(C)cc2C)n1` yielded a Ki of 0.13 µM.

The molecule `CCCN(CC1CC1)c1nc(C)nc(Nc2ccc(OC)cc2OC)n1` showed a Ki of 8 µM.

Take `CCN(Cc1ccccc1)c1nc(C)nc(Nc2ccc(C)cc2)n1`: the Ki is greater than 10 µM.

In turn, `CCCN(Cc1ccccc1)c1nc(C)nc(Nc2ccc(C)cc2)n1` yielded an inhibition constant (Ki) greater than 10 µM.

In turn, `Cc1ccc(Nc2nc(C)nc(NCc3ccc(C(F)(F)F)cc3)n2)cc1` gave an inhibition constant (Ki) greater than 10 µM.

In turn, `CCN(Cc1ccccc1)c1nc(C)nc(Nc2c(C)cc(C)cc2C)n1` had a Ki of 1.47 µM.

For `CCCN(CC1CC1)c1nc(CC)nc(Nc2c(C)cc(C)cc2C)n1`, the Ki was greater than 10 µM.

On to `CCCN(Cc1ccccc1)c1nc(C)nc(Nc2c(C)cc(C)cc2C)n1`, for which the Ki came to 0.49 µM.

`CCCCN(CCCC)c1nc(C)nc(Nc2c(C)cc(C)cc2C)n1` yielded a Ki of 0.49 µM.

`Cc1nc(NCc2ccc(C(F)(F)F)cc2)nc(Nc2c(C)cccc2C)n1`: the Ki was greater than 10 µM.

Regarding `CCCN(CC1CC1)c1nc(C)nc(Nc2ccc(C)cc2)n1`, the Ki is greater than 10 µM.

The molecule `C=CCN(CC=C)c1nc(C)nc(Nc2c(C)cc(C)cc2C)n1` displayed a Ki of 0.115 µM.

As to `CCc1cccc(CC)c1Nc1nc(C)nc(NCc2ccc(C(F)(F)F)cc2)n1`, the Ki worked out at 55 µM.

Molecule `CCCN(CC1CC1)c1nc(C)nc(Nc2c(C)cccc2C)n1` returned a Ki greater than 10 µM.

As to `CCCN(Cc1ccccc1)c1nc(C)nc(Nc2c(C)cccc2C)n1`, the inhibition constant Ki was greater than 10 µM.

For the molecule `CCCCN(Cc1ccccc1)c1nc(C)nc(Nc2c(C)cc(C)cc2C)n1`, the Ki came out at 1.05 µM.

On to `C=CCN(CC=C)c1nc(C)nc(Nc2ccc(C)cc2)n1`, for which the Ki is greater than 10 µM.

On to `CCCN(Cc1ccccc1)c1nc(C)nc(Nc2c(CC)cccc2CC)n1`, for which the Ki was greater than 10 µM.

The molecule `CCCN(CC1CC1)c1nc(C)nc(Nc2c(CC)cccc2CC)n1` showed an inhibitory constant (Ki) greater than 10 µM.

As to `CCCN(CC1CC1)c1nc(C)nc(Nc2ccc(C)cc2C)n1`, the inhibition constant (Ki) was greater than 10 µM.

For `C=CCN(CC=C)c1nc(C)nc(Nc2c(C)cccc2C)n1`, the Ki was greater than 10 µM.
